The target in one test is T1, CD80-Ig (Homo sapiens, UniProt P33681).
T1 construct: extracellular domain of CD80 fused with the constant region of mouse IgG1 heavy chain
Put plainly: Competitive kinetic analysis (SPR): CD28 peptides versus CD28-Ig for binding indirectly immobilized CD80-Ig. To be noted: for kd: competition with CD28-Ig 3.2 μM. The protocol: Competitive kinetic analysis was performed as described previously using purified anti-mouse IgG1 Fc (31437zz) (Pierce City, Ill., USA) to indirectly immobilize CD80-Ig (39). […] The binding kinetics of CD28-Ig was assessed by injecting a range of CD28-Ig concentration (187 nM to 12 μM) over immobilized CD80-Ig (324 RU) for 5 min at 10 μl/min. CD80-Ig was regenerated using a 3 min injection of 5 mM NaOH. For competitive kinetic analysis, 100 μl of a 3.2 μM CD28-Ig solution was mixed with 100 μl of EL CD28 or RI CD28 peptides (6.18 μM to 503 μM in HBS-EP) and injected over the surface of CD80-Ig as secondary analyte for 5 min with a flow rate of 10 μl/min. The CD80-Ig surface was regenerated between injections by washing for 3 min with 5 mM NaOH. The mixtures were also injected on an empty flow cell with no protein immobilized, as a control.
In competitive kinetic experiments, the observed response R is the sum of the contributions of R1 and R2 from the two analytes. The binding data was analyzed using the equation R(t)=R1 (CD28-Ig)+R2 (CD28-P) (3) where • R1=Rmaxka1C1/kf−ks{k1(kf−ks)/kf*ks+k1−kf/kf*e^−kf^(t−t0)−k1ks/ks*e^−ks(t−t0)} • R2=RmaxMW1ka2C2/MW2*kf−ks[{k2(kf−ks)}/kf*ks}+(k2−kf/kf)*e^−kf^(t−t0)−(k2−ks/ks)*e^−ks(t−t0) • kf=0.5{ktq+k2+π(ka1−k2)^2+4kf1kCD28PC1C2} • ks=0.5{kt1+k2−π(kt1−k2)^2+4k1k2C1C2} • kt CD28-Ig=ka1C+kd1 • kt2=ka2C2+kd2
When competitive data were analyzed, ka, kd and Rmax values obtained for the interaction between CD80-Ig and CD28-Ig were used as non floating parameters and the rate constants for CD28 peptides were calculated from the injection phase data using the expanded equation 3.
FIGS. 4a and 4b are representative sensograms obtained from the competitive experiments using the CD28-Ig and ELCD28 and RICD28 APR respectively. The top curve is the interaction of CD28-Ig (3.2 μM) alone with the CD80-Ig. The response level gradually goes down as the concentration of the specified CD28 peptide increases. […] However, the dissociation constant varied with varying concentration of EL CD28 peptide mimetic(Table 3).

For test [1], the system named is CD4+ LNC from TCR Vβ 8.2 Vα 4 transgenic mice. Put plainly: Apoptosis (TUNEL, flow cytometry) of antigen-stimulated Vβ8.2+ CD4+ lymph node cells in vitro. The format is cell-based, mouse. The protocol:
To investigate whether the observed decrease in proliferative responses following treatment with CD28 peptides is a result of cell loss, cell death was measured by enzymatic in-situ labeling. Apoptotic cells among MBP NAc1-11 stimulated TCR Vβ 8.2+ CD4+ T cells were detected by staining with FITC labeled Tdt (terminal deoxynucleotidyl transferase). Cells incubated in DNAse served as positive control.
CD4+ T cells from pooled lymph nodes and spleen from B10.PL TCR Vβ 8.2 Vα 4 transgenic mice were cultured in RPMI 1640 in a 96 well round-bottom plate, essentially under the conditions specified for proliferation assays. Cells were harvested at the end of 48 hours and apoptotic cells among TCR Vβ 8.2+ CD4+ T cells were detected by the TUNEL method. Briefly, after washing twice with PBS containing 1-% rat serum, the cells were stained with PE labeled anti-mouseVβ 8.1,8.2 TCR (clone MR5-2) (Pharmingen, San Diego, Calif.) for 30 min at room temperature and washed. Subsequently, the cells were fixed with 4% paraformaldehyde in PBS for 30 min at room temperature. Then the cells were washed and permeabilized with 0.1% Triton X-100 in 0.1% sodium citrate for 2 min at 4° C. After washing, the DNA strand breaks in the cells were detected by incubating the cells with fluorescein labeled TUNEL mix (terminal deoxynucleotidyl transferase (Tdt)) for 60 min at 37° C. using an in situ cell death detection kit (Boehringer Mannheim, Mannheim, Germany) according to the manufacturer's recommendations. As a positive control, cells were incubated in DNAse (1 mg/ml) for 10 minutes at room temperature prior to incubation with TdT. The negative control consisted of cells incubated without TdT. Cells were then washed with PBS and analyzed by flow cytometry.
(In general: A flow cytometer gives signals particle by particle.)

The test system of test [2] is CD4+ lymphocytes of immunized mice. Put plainly: Apoptosis of CD4+ T cells in peptide-treated EAE mice (enzymatic labeling of nicked ends). The format is in vivo, mouse. The following applies: mice treated on the day of immunization. As to the method: This was done by quantifying the DNA strand breaks in CD4+ lymphocytes detected by enzymatic labeling of nicked ends. Cells incubated in DNAse served as positive control.

For test [3], the system named is CD4+ splenocytes from Vα4/Vβ8.2 TCR transgenic mice. It counts as cell-based, mouse. The following applies: 72 h. As to the method: The in vitro effect of varying concentration of the CD 28 peptide mimetics on CD4+ lymph node cells and spleen cells from transgenic mice bearing the Vα 4 Vβ8.2 TCR specific for MBP Ac 1-11 was determined.
CD4+ T cells were purified from pooled peripheral lymph nodes (inguinal, axillary, brachial, cervical, popliteal), and mesenteric lymph nodes and spleen of 6–8 wk old Vα4/Vβ8.2 TCR transgenic mice by positive selection. Single cell suspensions were prepared by lympholyte M gradient, washed, counted and incubated with magnetic bead conjugated anti-mouse CD4 (L3T4) (Miltenyi Biotech Corporation) followed by positive selection using magnetic selection columns. Purity of the CD4^+ cells was greater than 90% as assessed by staining with FITC labeled anti-mouseVβ8.2 mAb (Pharmingen). During the selection process, T cells maintain a naïve phenotype with no evidence for T cell activation as measured by proliferation in culture. Purified CD4+ T-cells (5×10^4 cells/well) were cultured together with wild type splenocytes from B10.PL mice as APC's (10^5 cells/well) in RPMI 1640 containing 10% FCS, 25 mM HEPES, 2 mM L-glutamine, 50 U/ml penicillin, 50 μg/ml streptomycin, and 5×10–5 M 2-ME in round-bottom 96-well plates and MBP (40 μg/ml) or MBP NAc1-11 (10 μg/ml) or media only in the presence or absence of synthetic CD28 peptide analogues at different concentrations in triplicate wells for 72 h, including a final 18-h pulse with [^3H] thymidine. Cultures were harvested onto glass-fiber mats using a Skatron harvester (Skatron, Sterling, Va.) and were counted by liquid scintillation on LKB Betaplate (LKB, Rockville, Md.). The means of the triplicate were determined and the results are expressed as delta cpm (mean counts per minute of cultures with Ag-mean counts per minute of cultures with medium alone)±SD.

Where [4] appears, read: read-out: ka, competition with CD28-Ig 3.2 μM, peptide C 0.125 × 10^5 nM.
[5] abbreviates: read-out: ka, competition with CD28-Ig 3.2 μM, peptide C 0.25 × 10^5 nM.
[6] abbreviates: read-out: ka, competition with CD28-Ig 3.2 μM, peptide C 0.5 × 10^5 nM.
Setting [7] is: read-out: ka, competition with CD28-Ig 3.2 μM, peptide C 1 × 10^5 nM.
Where [8] appears, read: read-out: ka, competition with CD28-Ig 3.2 μM, peptide C 2 × 10^5 nM.
Where [9] appears, read: read-out: ka, competition with CD28-Ig 3.2 μM, peptide C 3 × 10^5 nM.
The mark [10] stands for this setting: 150 μM peptide, 48 hr, versus untreated.

Entries after “also recorded” stand apart in the source; their conditions may differ. Where two headings read alike, the source gives them in different places. Square brackets hold non-standard residues; d marks the D form. Peptide text beside a SMILES is read from it.

T1 sequence (P33681 35-242 limits assumed, other chains not shown): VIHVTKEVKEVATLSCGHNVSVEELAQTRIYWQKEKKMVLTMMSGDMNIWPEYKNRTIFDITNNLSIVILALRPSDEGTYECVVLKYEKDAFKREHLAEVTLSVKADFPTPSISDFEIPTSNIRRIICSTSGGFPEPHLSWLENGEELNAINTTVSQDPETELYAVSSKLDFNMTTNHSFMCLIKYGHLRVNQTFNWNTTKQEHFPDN

Take `CC[C@H](C)[C@H](NC(=O)[C@@H](NC(=O)CNC(=O)[C@H](CC(N)=O)NC(=O)[C@H](CO)NC(=O)[C@H](CCCNC(=N)N)NC(=O)[C@H](CCC(=O)O)NC(=O)[C@H](CC(N)=O)NC(=O)[C@H](CC(=O)O)NC(=O)[C@H](CC(C)C)NC(=O)[C@H](Cc1ccc(O)cc1)NC(=O)[C@@H]1CCCN1C(=O)[C@@H]1CCCN1C(=O)[C@@H]1CCCN1C(=O)[C@H](Cc1ccc(O)cc1)NC(=O)[C@H](CCSC)NC(=O)[C@H](Cc1ccccc1)NC(=O)[C@H](CCC(=O)O)NC(=O)[C@@H](NC(=O)[C@H](CCCCN)NC(C)=O)[C@@H](C)CC)[C@@H](C)O)C(N)=O` [EL CD28] (Ac-KIEFMYPPPYLDNERSNGTI-NH2): the kd at CD80-Ig (peptide C 0.125 × 10^5 nM) was 0.101 s⁻¹; on CD80-Ig (peptide C 0.25 × 10^5 nM) it was 0.0195 s⁻¹; at CD80-Ig (peptide C 0.5 × 10^5 nM) it was 0.316 s⁻¹; on CD80-Ig (peptide C 1 × 10^5 nM), 0.0803 s⁻¹; on CD80-Ig (peptide C 2 × 10^5 nM), 0.0862 s⁻¹; at CD80-Ig (peptide C 3 × 10^5 nM) it was 6.89 s⁻¹. The kon on CD80-Ig (setting [4]) is 73400 M⁻¹ s⁻¹; at CD80-Ig (setting [5]), 3360 M⁻¹ s⁻¹; at CD80-Ig (setting [6]) it was 63200 M⁻¹ s⁻¹; on CD80-Ig (setting [7]), 31600 M⁻¹ s⁻¹; on CD80-Ig (setting [8]), 55100 M⁻¹ s⁻¹; on CD80-Ig (setting [9]) it was 2.36e+06 M⁻¹ s⁻¹. For the same molecule, the “percentage of apoptotic cells (in words)” value in test [1] (setting [10]) is on record as “Significant increase”; in test [1] (150 μM peptide, 48 hr, versus untreated, listed as ELCD28) it was “significantly higher percentage”.

Take `CC[C@@H](C)[C@@H](NC(C)=O)C(=O)N[C@@H](C(=O)NCC(=O)N[C@H](CC(N)=O)C(=O)N[C@H](CO)C(=O)N[C@H](CCCNC(=N)N)C(=O)N[C@H](CCC(=O)O)C(=O)N[C@H](CC(N)=O)C(=O)N[C@H](CC(=O)O)C(=O)N[C@H](CC(C)C)C(=O)N[C@H](Cc1ccc(O)cc1)C(=O)N1CCC[C@@H]1C(=O)N1CCC[C@@H]1C(=O)N1CCC[C@@H]1C(=O)N[C@H](Cc1ccc(O)cc1)C(=O)N[C@H](CCSC)C(=O)N[C@H](Cc1ccccc1)C(=O)N[C@H](CCC(=O)O)C(=O)N[C@@H](C(=O)N[C@H](CCCCN)C(N)=O)[C@H](C)CC)[C@H](C)O` [RI CD28] (Ac-[dI][dT]G[dN][dS][dR][dE][dN][dD][dL][dY][dP][dP][dP][dY][dM][dF][dE][dI][dK]-NH2): the “percentage of apoptotic CD4+ T cells” value in test [2] is 16%. Moreover, the “maximum inhibition of proliferative response” value in test [3] worked out at 42%. In addition, the kd was found to be 0.177 s⁻¹ on CD80-Ig (peptide C 0.125 × 10^5 nM); 0.0738 s⁻¹ at CD80-Ig (peptide C 0.25 × 10^5 nM); 0.275 s⁻¹ on CD80-Ig (peptide C 0.5 × 10^5 nM); 0.142 s⁻¹ at CD80-Ig (peptide C 1 × 10^5 nM); 0.0245 s⁻¹ on CD80-Ig (peptide C 2 × 10^5 nM); 0.0206 s⁻¹ on CD80-Ig (peptide C 3 × 10^5 nM). In addition, the kon on CD80-Ig (setting [4]) came out at 105000 M⁻¹ s⁻¹; at CD80-Ig (setting [5]), 54400 M⁻¹ s⁻¹; on CD80-Ig (setting [6]), 92400 M⁻¹ s⁻¹; at CD80-Ig (setting [7]), 94700 M⁻¹ s⁻¹; at CD80-Ig (setting [8]), 23500 M⁻¹ s⁻¹; at CD80-Ig (setting [9]), 10700 M⁻¹ s⁻¹. Besides, the “percentage of apoptotic cells (in words)” value was “Significant increase” in test [1] (75 μM peptide, 48 hrs) and “significantly higher percentage; also recorded: Significant increase” in test [1] (setting [10]).
